Consider 5 molecules from ChEMBL document CHEMBL1681700, “Cytotoxic 3,6-bis((imidazolidinone)imino)acridines: synthesis, DNA binding and molecular modeling” (Bioorg Med Chem, 2011).

For series [1], the system named is Calf thymus DNA. Description: Binding affinity to A:T base pair region of calf thymus DNA by UV-visible spectrophotometer. It is filed as nucleic-acid assay. Conditions: Bos taurus.
Series [2] is described as follows: Octanol-water partition coefficient, log P of the compound. It is filed as physicochemical.
Series [3] concerns HL-60. Description: Cytotoxicity against human HL60 cells after 48 hrs by MTT assay. It is filed as functional, cell-based. The conditions noted are these: HL-60, 48 h. A general note: Tetrazolium assays rely on reduction of a dye to a coloured formazan, in cell work by metabolically active cells.
Series [4] has as its system L1210. The experiment in a line: Cytotoxicity against mouse L1210 cells after 48 hrs by trypan blue dye exclusion test. It is filed as functional, cell-based. Conditions: L1210, 48 h.
Series [5] deals with L1210. Description: Cytotoxicity against mouse L1210 cells after 48 hrs by MTT assay. The class given is functional, cell-based. The conditions noted are these: L1210, 48 h.
Series [6] has as its system L1210. The experiment in a line: Cytotoxicity against mouse L1210 cells after 72 hrs by MTT assay. The class given is functional, cell-based. Conditions: L1210, 72 h.
The subject of series [7] is HL-60. Description: Cytotoxicity against human HL60 cells after 72 hrs by trypan blue dye exclusion test. The class given is functional, cell-based. The conditions noted are these: HL-60, 72 h.
Series [8] deals with Calf thymus DNA. The experiment in a line: Binding affinity to calf thymus DNA at pH 7.4 by UV-visible spectrophotometer. It is filed as nucleic-acid assay. Conditions: Bos taurus.
The subject of series [9] is Calf thymus DNA. The experiment in a line: Binding affinity to C:G base pair region of calf thymus DNA by UV-visible spectrophotometer. It is filed as nucleic-acid assay. Conditions: Bos taurus.
Series [10] deals with L1210. Description: Cytotoxicity against mouse L1210 cells after 72 hrs by trypan blue dye exclusion test. The class given is functional, cell-based. Conditions: L1210, 72 h.
For series [11], the species on record is Bos taurus. The experiment in a line: Inhibition of calf thymus topoisomerase 1-mediated supercoiled DNA relaxation at 40 uM after 45 mins by ethidium bromide staining agarose gel electrophoresis.
Series [12] relates to Calf thymus DNA. The experiment in a line: Binding affinity to calf thymus DNA assessed as hypochromic effect by UV-visible spectrophotometer. The class given is nucleic-acid assay. The arrangement: concentration or dose not given beside the values. The conditions noted are these: Bos taurus.
The next series relates to U-937. The experiment in a line: Induction of apoptosis in human U937 cells assessed as DNA fragmentation at 122 uM after 18 hrs by ethidium bromide staining agarose gel electrophoresis. The class given is functional, cell-based.
For series [13], the system named is HL-60. Description: Cytotoxicity against human HL60 cells after 48 hrs by trypan blue dye exclusion test. The class given is functional, cell-based. Conditions: HL-60, 48 h.
The subject of series [14] is HL-60. The experiment in a line: Cytotoxicity against human HL60 cells after 72 hrs by MTT assay. It is filed as functional, cell-based. Conditions: HL-60, 72 h.
The species entered for series [15] is Bos taurus. The experiment in a line: Inhibition of calf thymus topoisomerase 1-mediated supercoiled DNA relaxation at 5 uM after 45 mins by ethidium bromide staining agarose gel electrophoresis.
The subject of series [16] is HL-60. The experiment in a line: Antiproliferative activity against human HL60 cells assessed as cytostatic effect at 1 uM after 72 hrs. It is filed as functional, cell-based.
Series [17] relates to HL-60. Description: Cytotoxicity against human HL60 cells at 3 to 10 uM after 72 hrs. The class given is functional, cell-based.
Series [18] concerns HL-60. The experiment in a line: Drug uptake in human HL60 cells assessed as drug accumulation in nucleus at 5 uM after 24 hrs by fluorescence analysis. The class given is ADME, cell-based. Conditions: hl-60, 24 h.
Series [19] concerns HL-60. The experiment in a line: Drug uptake in human HL60 cells assessed as drug accumulation at 5 uM after 140 mins by fluorescence analysis. The class given is ADME, cell-based. Conditions: hl-60, 140 min.
Series [20] concerns HL-60. The experiment in a line: Drug uptake in human HL60 cells assessed as drug distribution in plasmatic membrane and cytosol at 5 uM after 4 hrs by fluorescence analysis. The class given is ADME, cell-based. The conditions noted are these: hl-60, 4 h.

pIC50: −log10 of the molar value. The source made the active and inactive calls. No cut-off for these calls is given here.

Broadly, the logP is a log measure of how a compound divides between an organic and an aqueous phase. What is called pIC50 is −log10 of the IC50, conventionally taken in molar units. `CCN1C(=O)CN/C1=N\c1ccc2cc3ccc(/N=C4\NCC(=O)N4CC)cc3nc2c1`: in the series with Calf thymus DNA [1], the outcome was inactive. In series [2], this molecule had a log partition coefficient (logP) of 2.17. The pIC50 was 4.12 in the series on HL-60 [3]; 4.04 with L1210 [4]; less than 4.00 in the series on L1210 [5]; less than 4.00 in the series with L1210 [6]; 4.07 in the series with HL-60 [7]; less than 4.00 with L1210 [10]. Further, the pIC50 was 4.08 in the series on HL-60 [13] and 4.10 in the series on HL-60 [14]. For the same molecule, the K in the series with Calf thymus DNA [8] was 7.1 ×10⁵ /M. Also, the result with Calf thymus DNA [9] and in the series on U-937 was Active. Also, the inhibition result in the series filed under Bos taurus [11] is “Active”. Moreover, the Activity with Calf thymus DNA [12] turned out to be 34%. Further, the inhibition result in the series filed under Bos taurus [15] was “inactive”.
As for `CCCCCCN1C(=O)CN/C1=N\c1ccc2cc3ccc(/N=C4\NCC(=O)N4CCCCCC)cc3nc2c1.Cl`, the outcome in the series with HL-60 [16], in the series with Calf thymus DNA [9] and in the series on U-937 was Active. In addition, the results for the Activity entry with HL-60 [17] and in the series with Calf thymus DNA [12] were “Toxic” and 47%, respectively. Besides, the outcome with Calf thymus DNA [1] was inactive. In series [2], the logP amounted to 5.88. Also, the pIC50 with HL-60 [3] is 5.34; with L1210 [4], 5.37; in the series with L1210 [5] it was 5.26; with L1210 [6] it was 5.22; in the series with HL-60 [7], 5.67; in the series on L1210 [10], 5.28. Further, the pIC50 is 5.61 with HL-60 [13] and 5.31 in the series with HL-60 [14]. Further, the Drug uptake result with HL-60 [18], with HL-60 [19] and in the series with HL-60 [20] was “Active” in each case. Moreover, the K with Calf thymus DNA [8] was determined as 1.9 ×10⁵ /M. For the same molecule, in the series filed under Bos taurus [11], the inhibition entry is “Active”. In addition, the inhibition result in the series filed under Bos taurus [15] was “inactive”.
On to `CCCCCN1C(=O)CN/C1=N\c1ccc2cc3ccc(/N=C4\NCC(=O)N4CCCCC)cc3nc2c1`, for which the result in the series on Calf thymus DNA [1] was inactive. In addition, in series [2], the logP came out at 4.99. In addition, the negative-log IC50 (pIC50) with HL-60 [3] is 5.08; in the series with L1210 [4], 4.91; in the series on L1210 [5], 4.86; in the series on L1210 [6], 4.82; in the series with HL-60 [7], 5.14; in the series on L1210 [10] it was 4.80. The results for the pIC50 with HL-60 [13] and with HL-60 [14] were 5.27 and 5.07, respectively. Besides, the K in the series on Calf thymus DNA [8] was 2.8 ×10⁵ /M. For the same molecule, the outcome in the series with Calf thymus DNA [9] and with U-937 was Active. Also, the inhibition result in the series filed under Bos taurus [11] was “Active”. The Activity in the series with Calf thymus DNA [12] came to 45%. Moreover, the inhibition result in the series filed under Bos taurus [15] is “inactive”.
Regarding `CCCCN1C(=O)CN/C1=N\c1ccc2cc3ccc(/N=C4\NCC(=O)N4CCCC)cc3nc2c1`, in the series on Calf thymus DNA [1], the result was inactive. The molecule further displayed a logP in [2] of 4.1. In addition, the pIC50 was 4.86 in the series on HL-60 [3]; 4.58 in the series with L1210 [4]; 4.53 in the series with L1210 [5]; 4.58 in the series on L1210 [6]; 4.83 with HL-60 [7]; 4.56 with L1210 [10]. Further, the pIC50 in the series on HL-60 [13] was 4.93; in the series with HL-60 [14], 4.79. In the series on Calf thymus DNA [8], this molecule returned a K of 4.2 ×10⁵ /M. The result in the series on Calf thymus DNA [9] and with U-937 was Active. Also, the inhibition result in the series listed under Bos taurus [11] was “Active”. The Activity in the series with Calf thymus DNA [12] was determined as 50%. Further, the inhibition entry in the series listed under Bos taurus [15] was “inactive”.
Turning to `CCCN1C(=O)CN/C1=N\c1ccc2cc3ccc(/N=C4\NCC(=O)N4CCC)cc3nc2c1.Cl`, the result with Calf thymus DNA [1] was inactive. In series [2], this molecule had a logP of 3.21. The pIC50 in the series with HL-60 [3] was 4.13; with L1210 [4], 4.35; in the series with L1210 [5], 4.34; in the series with L1210 [6], 4.17; in the series with HL-60 [7] it was 4.05; in the series on L1210 [10], 4.18. The pIC50 in the series on HL-60 [13] was 4.15; in the series on HL-60 [14] it was 4.02. Moreover, the Drug uptake entry in the series with HL-60 [18] is listed as “Not Active”; with HL-60 [19], “Not Active”; in the series on HL-60 [20], “Active”. Further, in the series on Calf thymus DNA [8], the K was 5.7 ×10⁵ /M. For the same molecule, the result in the series with Calf thymus DNA [9] and with U-937 was Active. For the same molecule, the inhibition entry in the series filed under Bos taurus [11] was “Active”. The Activity with Calf thymus DNA [12] stood at 54%. Also, the inhibition result in the series listed under Bos taurus [15] was “inactive”.
